Converted amounts (≈) assume the structure as drawn. Values belong to the compound of their own block, whether it stands above or below them.
Columns and labels:
Format in all cases: functional
Staphylococcus aureus [1] = test: Antibacterial activity against Staphylococcus aureus clinical isolate assessed as bacterial growth inhibition by disk diffusion method
Escherichia coli [2] = test: Antibacterial activity against Escherichia coli clinical isolate assessed as bacterial growth inhibition by disk diffusion method
Klebsiella pneumoniae [3] = test: Antibacterial activity against Klebsiella pneumoniae clinical isolate assessed as bacterial growth inhibition by disk diffusion method
Pseudomonas putida = test: Antibacterial activity against Pseudomonas putida clinical isolate assessed as bacterial growth inhibition by disk diffusion method
Serratia marcescens = test: Antibacterial activity against Serratia marcescens clinical isolate assessed as bacterial growth inhibition by disk diffusion method
Staphylococcus aureus [4] = test: Antibacterial activity against Staphylococcus aureus ATCC 43300 assessed as bacterial growth inhibition incubated for 24 hrs by broth microdilution method
Staphylococcus aureus [5] = test: Antibacterial activity against Staphylococcus aureus ATCC 29213 assessed as bacterial growth inhibition incubated for 24 hrs by broth microdilution method
Staphylococcus aureus [6] = test: Antibacterial activity against Staphylococcus aureus clinical isolate AD3 assessed as bacterial growth inhibition incubated for 24 hrs by broth microdilution method
Staphylococcus aureus [7] = test: Antibacterial activity against Staphylococcus aureus clinical isolate 144 assessed as bacterial growth inhibition incubated for 24 hrs by broth microdilution method
Staphylococcus aureus [8] = test: Antibacterial activity against Staphylococcus aureus clinical isolate assessed as bacterial growth inhibition incubated for 24 hrs by disk diffusion method
Escherichia coli [9] = test: Antibacterial activity against Escherichia coli clinical isolate assessed as bacterial growth inhibition incubated for 24 hrs by disk diffusion method
Bacillus subtilis [10] = test: Antibacterial activity against Bacillus subtilis assessed as bacterial growth inhibition by broth microdilution method
Pseudomonas aeruginosa = test: Antibacterial activity against Pseudomonas aeruginosa assessed as bacterial growth inhibition by broth microdilution method
Staphylococcus aureus [11] = test: Antibacterial activity against erythromycin-susceptible Staphylococcus aureus ATCC 25923 assessed as bacterial growth inhibition by standard dilution assay
Staphylococcus aureus [12] = test: Antibacterial activity against methicillin-resistant Staphylococcus aureus ATCC 43300 assessed as bacterial growth inhibition by standard dilution assay
Staphylococcus aureus [13] = test: Antibacterial activity against erythromycin-resistant Staphylococcus aureus clinical isolate assessed as bacterial growth inhibition by standard dilution assay
Staphylococcus aureus [14] = test: Antibacterial activity against penicillin-resistant Staphylococcus aureus ATCC 31007 assessed as bacterial growth inhibition by standard dilution assay
Klebsiella pneumoniae [15] = test: Antibacterial activity against erythromycin-resistant Klebsiella pneumoniae ATCC 700603 assessed as bacterial growth inhibition by standard dilution assay
Staphylococcus aureus [16] = test: Potency index, ratio of Azithromycin MIC to test compound MIC for antibacterial activity against erythromycin-susceptible Staphylococcus aureus ATCC 25923 assessed as bacterial growth inhibition by standard dilution assay
Staphylococcus aureus [17] = test: Potency index, ratio of Clarithromycin MIC to test compound MIC for antibacterial activity against erythromycin-susceptible Staphylococcus aureus ATCC 25923 assessed as bacterial growth inhibition by standard dilution assay
Staphylococcus aureus [18] = test: Antibacterial activity against Staphylococcus aureus assessed as bacterial growth inhibition
Streptococcus pyogenes = test: Antibacterial activity against erythromycin-resistant Streptococcus pyogenes clinical isolate 2 assessed as bacterial growth inhibition incubated for 24 hrs by CLSI based broth microdilution method
Streptococcus pneumoniae [19] = test: Antibacterial activity against erythromycin-resistant Streptococcus pneumoniae AB11 expressing ermB/mefA assessed as bacterial growth inhibition incubated for 24 hrs by CLSI based broth microdilution method
Streptococcus pneumoniae [20] = test: Antibacterial activity against erythromycin-resistant Streptococcus pneumoniae B1 expressing ermB assessed as bacterial growth inhibition incubated for 24 hrs by CLSI based broth microdilution method
Staphylococcus aureus [21] = test: Antibacterial activity against methicillin-resistant Staphylococcus aureus ATCC 43300 assessed as bacterial growth inhibition incubated for 24 hrs by CLSI based broth microdilution method
Staphylococcus aureus [22] = test: Antibacterial activity against penicillin-resistant Staphylococcus aureus ATCC 31007 assessed as bacterial growth inhibition incubated for 24 hrs by CLSI based broth microdilution method
Staphylococcus aureus [23] = test: Antibacterial activity against Staphylococcus aureus 209p ATCC 6538P assessed as bacterial growth inhibition incubated for 1 to 2 days by serial dilution method; details: time 1-2 day
Staphylococcus aureus [24] = test: Antibacterial activity against Staphylococcus aureus assessed as bacterial growth inhibition by broth dilution method
Bacillus subtilis [25] = test: Antibacterial activity against Bacillus subtilis assessed as bacterial growth inhibition by serial dilution method
[26] = system: Staphylococcus epidermidis; test: Antibacterial activity against Staphylococcus epidermidis assessed as bacterial growth inhibition by serial dilution method
Staphylococcus aureus [27] = test: Antibacterial activity against multidrug-resistant Staphylococcus aureus clinical isolate assessed as bacterial growth inhibition by broth dilution method
Staphylococcus aureus [28] = test: Antibacterial activity against methicillin-resistant Staphylococcus aureus ATCC 43300 infected in neutropenic mouse model of thigh infection assessed as reduction in bacterial load at 20 mg/kg, iv measured after 24 hrs by colony counting method

- MIC (Staphylococcus aureus [1]): 12.3 µg/mL (≈ 28.1 µM)
- MIC (Escherichia coli [2]): 12.3 µg/mL (≈ 28.1 µM)
- MIC (Klebsiella pneumoniae [3]): 12.3 µg/mL (≈ 28.1 µM)
- MIC (Pseudomonas putida): 12.3 µg/mL (≈ 28.1 µM)
- MIC (Serratia marcescens): 12.3 µg/mL (≈ 28.1 µM)
Compound: Cc1ccc(NC(=O)Cn2cc(Cn3c4ccccc4c(=O)c4cc(C)ccc43)nn2)cc1

- MIC (Staphylococcus aureus [4]): 0.5 µg/mL (≈ 0.771 µM)
- MIC (Staphylococcus aureus [5]): 0.5 µg/mL (≈ 0.771 µM)
- MIC (Staphylococcus aureus [6]): 0.5 µg/mL (≈ 0.771 µM)
- MIC (Staphylococcus aureus [7]): 0.5 µg/mL (≈ 0.771 µM)
Compound: C=C[C@]1(C)C[C@@H](OC(=O)Cn2cc(CN3CCN(c4ccc([N+](=O)[O-])cc4)CC3)nn2)[C@@]2(C)[C@@H]3C(=O)CC[C@@]3(CC[C@@H]2C)[C@@H](C)[C@@H]1O

- MIC (Staphylococcus aureus [8]): 10.1 µg/mL (≈ 26.5 µM)
- MIC (Escherichia coli [9]): 10.1 µg/mL (≈ 26.5 µM)
Compound: Cc1ccc2c(c1)c(=O)c1ccccc1n2Cc1cn(-c2ccccc2C)nn1

- MIC (Bacillus subtilis [10]): 1.25 µg/mL (≈ 3.52 µM)
- MIC (Pseudomonas aeruginosa): 1.25 µg/mL (≈ 3.52 µM)
Compound: C=CCCCCC1CC(=O)N1Cc1cn(-c2cccc([N+](=O)[O-])c2)nn1 (centres undefined)

Compound: CCCCCc1ccc(-c2cn(CC(=O)NNC(=O)O[C@H]3C[C@H](C)[C@@H](O[C@@H]4[C@H](C)[C@@H](O[C@H]5O[C@@H](C)C[C@@H](N(C)C)[C@@H]5O)[C@@](C)(O)C[C@@H](C)CN(C)[C@H](C)[C@H]5OC(=O)O[C@]5(C)[C@H](CC)OC(=O)[C@@H]4C)C[C@@]3(C)OC)nn2)cc1
- MIC (Staphylococcus aureus [11]): 2 µg/mL (≈ 1.84 µM)
- MIC (Staphylococcus aureus [12]): 2 µg/mL (≈ 1.84 µM)
- MIC (Staphylococcus aureus [13]): ≥ 128 µg/mL
- MIC (Staphylococcus aureus [14]): 2 µg/mL (≈ 1.84 µM)
- MIC (Klebsiella pneumoniae [15]): ≥ 128 µg/mL
- Ratio (Staphylococcus aureus [16]): >32
- Ratio (Staphylococcus aureus [17]): >32

- MIC (Staphylococcus aureus [18]): 4 µg/mL
Compound: COc1cc2c(cc1OC)C[N+](Cc1cn(-c3ccc(C(C)(C)C)cc3)nn1)(Cc1cn(-c3ccc(C(C)(C)C)cc3)nn1)CC2.[Br-]

- MIC (Staphylococcus aureus [4]): 0.5 µg/mL (≈ 0.771 µM)
- MIC (Staphylococcus aureus [5]): 0.5 µg/mL (≈ 0.771 µM)
- MIC (Staphylococcus aureus [6]): 0.5 µg/mL (≈ 0.771 µM)
- MIC (Staphylococcus aureus [7]): 0.5 µg/mL (≈ 0.771 µM)
Compound: C=C[C@]1(C)C[C@@H](OC(=O)Cn2cc(CN3CCN(c4ccccc4[N+](=O)[O-])CC3)nn2)[C@@]2(C)[C@@H]3C(=O)CC[C@@]3(CC[C@@H]2C)[C@@H](C)[C@@H]1O

- MIC (Staphylococcus aureus [1]): 12.3 µg/mL (≈ 28.1 µM)
- MIC (Escherichia coli [2]): 12.3 µg/mL (≈ 28.1 µM)
- MIC (Klebsiella pneumoniae [3]): 12.3 µg/mL (≈ 28.1 µM)
- MIC (Pseudomonas putida): 12.3 µg/mL (≈ 28.1 µM)
- MIC (Serratia marcescens): 12.3 µg/mL (≈ 28.1 µM)
Compound: Cc1ccc2c(c1)c(=O)c1ccccc1n2Cc1cn(CC(=O)Nc2ccccc2C)nn1

- MIC (Staphylococcus aureus [8]): 10.1 µg/mL (≈ 27.6 µM)
- MIC (Escherichia coli [9]): 10.1 µg/mL (≈ 27.6 µM)
Compound: Cc1ccccc1-n1cc(Cn2c3ccccc3c(=O)c3ccccc32)nn1

Compound: CC[C@H]1OC(=O)[C@H](C)[C@@H](O[C@H]2C[C@@](C)(OC)[C@@H](O)[C@H](C)O2)[C@H](C)[C@@H](O[C@@H]2O[C@H](C)C[C@H](N(C)C)[C@H]2O)[C@](C)(O)C[C@@H](C)CN(C)[C@H](C)[C@@H](O)[C@]1(C)O [AZITHROMYCIN]
- MIC (Streptococcus pyogenes): > 256 µg/mL
- MIC (Streptococcus pneumoniae [19]): > 256 µg/mL
- MIC (Streptococcus pneumoniae [20]): > 256 µg/mL
- MIC (Staphylococcus aureus [21]): > 256 µg/mL
- MIC (Staphylococcus aureus [22]): > 256 µg/mL
- MIC (Staphylococcus aureus [11]): > 128 µg/mL
- MIC (Staphylococcus aureus [12]): > 128 µg/mL
- MIC (Staphylococcus aureus [14]): > 128 µg/mL

- MIC (Staphylococcus aureus [23]): 0.97 µg/mL (≈ 1.75 µM)
Compound: CO/N=C(\C(=O)N[C@@H]1C(=O)N2C(C(=O)O)=C(CSc3nc(=O)c(O)nn3C)CS[C@H]12)c1csc(N)n1 [CEFTRIAXONE]

Compound: CC[C@H]1OC(=O)[C@H](C)[C@@H](O[C@H]2C[C@@](C)(OC)[C@@H](O)[C@H](C)O2)[C@H](C)[C@@H](O[C@@H]2O[C@H](C)C[C@H](N(C)C)[C@H]2O)[C@](C)(OC)C[C@@H](C)C(=O)[C@H](C)[C@@H](O)[C@]1(C)O [CLARITHROMYCIN]
- MIC (Staphylococcus aureus [11]): > 128 µg/mL
- MIC (Staphylococcus aureus [12]): > 128 µg/mL
- MIC (Staphylococcus aureus [14]): > 128 µg/mL

Compound: CCn1cc(C(=O)O)c(=O)c2cc(F)c(N3CCNCC3)cc21 [NORFLOXACIN]
- MIC (Staphylococcus aureus [24]): 7.5 µg/mL (≈ 23.5 µM)
- MIC (Bacillus subtilis [25]): 3.12 µg/mL (≈ 9.77 µM)
- MIC [26]: 3.12 µg/mL (≈ 9.77 µM)
- MIC (Staphylococcus aureus [27]): 7.5 µg/mL (≈ 23.5 µM)

Compound: C=C[C@]1(C)C[C@@H](OC(=O)CSCCN(CC)CC)[C@]2(C)[C@H](C)CC[C@]3(CCC(=O)[C@H]32)[C@@H](C)[C@@H]1O [TIAMULIN]
- Activity (Staphylococcus aureus [28]): -0.57 log10CFU/ml

From ChEMBL document CHEMBL5344406, “1,2,3-Triazole-containing hybrids with potential antibacterial activity against ESKAPE pathogens” (2022)
